# Where “and” joins values, the source holds several entries; their conditions need not be identical. Identical values can stand only once.
# System: VCA0107-GFP
# Assay: Qrr4 regulation of VCA0107-GFP translational fusion, anhydrous tetracycline-inducible qrr4 (S4 Fig)
# Assay type: cell-based, E. coli
# Description: We examined whether Qrr regulation of CqsS is direct or indirect using a CqsS-mKATE2 translational fusion in E. coli expressing inducible qrr4. We reasoned that, if CqsS production is controlled by Qrr4, repression of CqsS-mKATE2 should occur when Qrr4 is induced. We verified that our system works by showing that inducible Qrr4 is capable of repressing a previously-identified direct target, VCA0107-GFP [24]. However, no repression of CqsS-mKATE2 occurred following induction of Qrr4 (S4 Fig).
# To assay qrr4 regulation of cqsS, the relative fluorescence of translational fusions (VCA0107B-GFP and CqsS-mKATE2) was measured in E. coli BWR1. E. coli carrying one of these plasmids also contained either an empty plasmid (pZA31) or pZA31 carrying anhydrous tetracycline-inducible qrr4. Qrr4-mediated repression of CqsS-mKATE2 was assessed. VCA0107-GFP is a known Qrr4-repressed target and was used as a positive control to show the system was functional. Overnight cultures were diluted 1:50 into fresh medium and aliquotted in triplicate into 96 well plates. […] OD600 and fluorescence were assessed using an Envision 2103 Multilabel Reader (Perkin Elmer).
# Supplementary file pgen.1006826.s008.tiff: S4 Fig Qrr4 indirectly regulates cqsS. Fluorescence from plasmid-encoded VCA0107-GFP (circles) and CqsS-mKATE2 (squares) was measured in E. coli. Either an empty vector (pZA31-lucNB, black) or pZA31-lucNB carrying tetracycline-inducible qrr4 (pYS245, red) was present in each strain. VCA0107 encodes a type VI secretion system component that is regulated by Qrr4. Data represent two experiments conducted in triplicate. Error bars represent standard errors of the mean. (TIFF) Click here for additional data file.
smiles,measurement,setting,value
Cc1c2c(c(O)c3c(O)cccc13)C(=O)[C@]1(O)C(=O)C(C(N)=O)=C(O)[C@@H](N(C)C)[C@@H]1C2 [aTc],"Relative reporter signal, experimental averages","pVC107 Qrr4, aTc 0.195312 ng/ml, normalized to 0.0976562 ng/ml",1.025 and 0.934
same,"Relative reporter signal, experimental averages","pVC107 Qrr4, aTc 0.390625 ng/ml, normalized to 0.0976562 ng/ml",1.044 and 1.031
same,"Relative reporter signal, experimental averages","pVC107 Qrr4, aTc 0.78125 ng/ml, normalized to 0.0976562 ng/ml",1.069 and 1.04
same,"Relative reporter signal, single replicates","pVC107 Qrr4, aTc 1.5625 ng/ml",0.9829 and 1.022 and 1.084 and 1.082 and 1.066 and 1.076
same,"Relative reporter signal, experimental averages","pVC107 Qrr4, aTc 1.5625 ng/ml, normalized to 0.0976562 ng/ml",1.075 and 1.029
same,"Relative reporter signal, single replicates","pVC107 Qrr4, aTc 3.125 ng/ml",0.9883 and 0.983 and 1.044 and 1.076 and 1.038 and 1.063
same,"Relative reporter signal, experimental averages","pVC107 Qrr4, aTc 3.125 ng/ml, normalized to 0.0976562 ng/ml",1.059 and 1.005
same,"Relative reporter signal, single replicates","pVC107 Qrr4, aTc 6.25 ng/ml",0.8986 and 0.9025 and 1.018 and 1.038 and 1.0458 and 1.143
same,"Relative reporter signal, experimental averages","pVC107 Qrr4, aTc 6.25 ng/ml, normalized to 0.0976562 ng/ml",1.075 and 0.9397
same,"Relative reporter signal, single replicates","pVC107 Qrr4, aTc 12.5 ng/ml",0.8122 and 0.8585 and 0.963 and 0.9294 and 0.9674 and 1.0333
same,"Relative reporter signal, experimental averages","pVC107 Qrr4, aTc 12.5 ng/ml, normalized to 0.0976562 ng/ml",0.9767 and 0.8779
same,"Relative reporter signal, single replicates","pVC107 Qrr4, aTc 25 ng/ml",0.8439 and 0.8636 and 0.8571 and 0.6965 and 0.6285 and 0.7212
same,"Relative reporter signal, experimental averages","pVC107 Qrr4, aTc 25 ng/ml, normalized to 0.0976562 ng/ml",0.6821 and 0.8548
same,"Relative reporter signal, single replicates","pVC107 Qrr4, aTc 50 ng/ml",0.8785 and 0.8105 and 0.7819 and 0.6416 and 0.6171 and 0.6104
same,"Relative reporter signal, experimental averages","pVC107 Qrr4, aTc 50 ng/ml, normalized to 0.0976562 ng/ml",0.623 and 0.8236
same,"Relative reporter signal, single replicates","pVC107 Qrr4, aTc 100 ng/ml",0.9222 and 0.8261 and 0.8207 and 0.6781 and 0.6674 and 0.7021
same,"Relative reporter signal, experimental averages","pVC107 Qrr4, aTc 100 ng/ml, normalized to 0.0976562 ng/ml",0.6825 and 0.8563
same,"Relative reporter signal, single replicates","pVC107 Qrr4, aTc 200 ng/ml",0.9029 and 0.8931 and 0.8706 and 0.7542 and 0.8262 and 0.8413
same,"Relative reporter signal, experimental averages","pVC107 Qrr4, aTc 200 ng/ml, normalized to 0.0976562 ng/ml",0.8072 and 0.8889
same,"Relative reporter signal, experimental averages","pVC107 vector, aTc 0.0976562 ng/ml (normalization point)",1
same,"Relative reporter signal, experimental averages","pVC107 vector, aTc 0.195312 ng/ml, normalized to 0.0976562 ng/ml",1.1928 and 0.9542
same,"Relative reporter signal, experimental averages","pVC107 vector, aTc 0.390625 ng/ml, normalized to 0.0976562 ng/ml",1.239 and 0.9963
same,"Relative reporter signal, single replicates","pVC107 vector, aTc 0.78125 ng/ml",1.048 and 0.979 and 1.04 and 0.9279
same,"Relative reporter signal, experimental averages","pVC107 vector, aTc 0.78125 ng/ml, normalized to 0.0976562 ng/ml",1.09 and 0.9823
same,"Relative reporter signal, single replicates","pVC107 vector, aTc 1.5625 ng/ml",1.061 and 1.021 and 0.9897 and 0.9644 and 1.121 and 1.094
same,"Relative reporter signal, experimental averages","pVC107 vector, aTc 1.5625 ng/ml, normalized to 0.0976562 ng/ml",1.092 and 0.9917
same,"Relative reporter signal, single replicates","pVC107 vector, aTc 3.125 ng/ml",0.9263 and 0.9693 and 1.011 and 0.9278 and 1.0391 and 1.108
same,"Relative reporter signal, experimental averages","pVC107 vector, aTc 3.125 ng/ml, normalized to 0.0976562 ng/ml",1.024 and 0.9695
same,"Relative reporter signal, single replicates","pVC107 vector, aTc 6.25 ng/ml",0.9938 and 0.9834 and 0.9842 and 0.9532 and 1.085 and 1.105
same,"Relative reporter signal, experimental averages","pVC107 vector, aTc 6.25 ng/ml, normalized to 0.0976562 ng/ml",1.061 and 0.9736
same,"Relative reporter signal, single replicates","pVC107 vector, aTc 12.5 ng/ml",0.9967 and 0.9285 and 1.002 and 0.9658 and 1.022 and 1.055
same,"Relative reporter signal, experimental averages","pVC107 vector, aTc 12.5 ng/ml, normalized to 0.0976562 ng/ml",1.025 and 0.9655
same,"Relative reporter signal, single replicates","pVC107 vector, aTc 25 ng/ml",1.488 and 0.9589 and 0.9637 and 0.9614 and 1.035 and 1.177
same,"Relative reporter signal, experimental averages","pVC107 vector, aTc 25 ng/ml, normalized to 0.0976562 ng/ml",1.233 and 0.9614
same,"Relative reporter signal, single replicates","pVC107 vector, aTc 50 ng/ml",1.1512 and 1.025 and 1.023 and 0.9608 and 1.174 and 1.186
same,"Relative reporter signal, experimental averages","pVC107 vector, aTc 50 ng/ml, normalized to 0.0976562 ng/ml",1.17 and 1.003
same,"Relative reporter signal, single replicates","pVC107 vector, aTc 100 ng/ml",1.032 and 0.8995 and 0.9791 and 1.0414 and 1.344 and 1.183
same,"Relative reporter signal, experimental averages","pVC107 vector, aTc 100 ng/ml, normalized to 0.0976562 ng/ml",1.1863 and 0.9733
same,"Relative reporter signal, single replicates","pVC107 vector, aTc 200 ng/ml",1.427 and 1.005 and 1.106 and 1.055 and 1.369 and 1.3707
same,"Relative reporter signal, experimental averages","pVC107 vector, aTc 200 ng/ml, normalized to 0.0976562 ng/ml",1.389 and 1.0553

# Reference: article PMC5467912, “Asymmetric regulation of quorum-sensing receptors drives autoinducer-specific gene expression programs in Vibrio cholerae” (PLoS Genetics, 2017)
